Assay results reported in US12421249B2, “Inhibitors of APOL1 and methods of using same” (Vertex Pharmaceuticals Incorporated, priority 2020, dated 2025).

Target: T1, APOL1 G1 (Homo sapiens, UniProt O14791, I384M/S342G)
T1 sequence (O14791 28-398 S342G/I384M): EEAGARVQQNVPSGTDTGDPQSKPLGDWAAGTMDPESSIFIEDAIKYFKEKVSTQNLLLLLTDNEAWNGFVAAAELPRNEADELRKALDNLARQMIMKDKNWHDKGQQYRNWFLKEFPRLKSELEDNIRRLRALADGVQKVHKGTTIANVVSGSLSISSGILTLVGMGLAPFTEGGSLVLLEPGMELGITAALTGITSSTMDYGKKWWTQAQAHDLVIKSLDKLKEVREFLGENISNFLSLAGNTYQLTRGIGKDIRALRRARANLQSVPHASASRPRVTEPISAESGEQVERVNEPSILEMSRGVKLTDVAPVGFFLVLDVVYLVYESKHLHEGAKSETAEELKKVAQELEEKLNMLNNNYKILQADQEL
Assay: MultiTox-Fluor Multiplex Cytotoxicity Assay in tet-inducible APOL1 G1 T-REx-HEK293 cells (clone G1 DC3.25)
Assay type: cell-based
Parameters: expressed in transfected cells; host or cells: T-REx HEK293, pAAVS1-Puro-APOL1 G1, clone G1 DC3.25
Settings: Multi-Tox Assay, APOL1 variant cell line not given; for IC50: IP50 = IC50 for cell proliferation
Method: The MultiTox-Fluor Multiplex Cytotoxicity Assay is a single-reagent-addition, homogeneous, fluorescence assay that measures the number of live and dead cells simultaneously in culture wells. The assay measures cell viability and cytotoxicity by detecting two distinct protease activities. The live-cell protease activity is restricted to intact viable cells and is measured using a fluorogenic, cell-permeant peptide glycyl-phenylalanylamino fluorocoumarin (GF-AFC) substrate. The substrate enters intact cells, where it is cleaved to generate a fluorescent signal proportional to the number of living cells. […] A second, cell-impermeant, fluorogenic peptide substrate (bis-AAF-R110 Substrate) is used to measure dead-cell protease that has been released from cells that have lost membrane integrity. A ratio of dead to live cells is used to normalize data.
Briefly, the tet-inducible transgenic APOL1 T-REx-HEK293 cell lines were incubated with 50 ng/mL tet to induce APOL1 in the presence of 3-(2-(4-fluorophenyl)-1H-indol-3-yl)-N-((3S,4R)-4-hydroxy-2-oxopyrrolidin-3-yl)propenamide at […], 0.0045, 0.0015, 0.0005 μM in duplicate for 24 hours in a humidified 37° C. incubator. The MultiTox reagent was added to each well and placed back in the incubator for an additional 30 minutes. The plate was read on the EnVision plate reader. A ratio of dead to live cells was used to normalize, and data was imported, analyzed and fit using Genedata Screener (Basel, Switzerland) software. Data was normalized using percent of control, no tet (100% viability), and 50 ng/mL tet treated (0% viability), and fit using Smart Fit. The reagents, methods, and complete protocol for the MultiTox assay are described below.
Human embryonic kidney (HEK293) cell lines containing a tet-inducible expression system (T-REx™; Invitrogen, Carlsbad, CA) and Adeno-associated virus site 1 pAAVS1-Puro-APOL1 G0 or pAAVS1-Puro-APOL1 G1 or pAAVS1-Puro-APOL1 G2 Clones G0 DC2.13, G1 DC3.25, and G2 DC4.44 were grown in a T-225 flask at ˜90% confluency in cell growth media (DMEM, 10% Tet-free FBS, 2 mM L-glutamine, 100 Units/mL penicillin-streptomycin, 5 μg/mL blasticidin S HCl, 1 μg/mL puromycin dihydrochloride). Cells were washed with DPBS and then trypsinized to dissociate from the flask. Media was used to quench the trypsin, cells were then pelleted at 200 g and resuspended in fresh cell assay media (DMEM, 2% Tet-free FBS, 2 mM L-glutamine, 100 Units/mL penicillin-streptomycin). Cells were counted and diluted to 1.17×10^6 cells/mL. 20 μL of cells (23,400/well) were dispensed to every well of a 384-well Poly-D-Lysine coated plate using the Multidrop dispenser. The plates were then incubated at room temperature for one hour.
Tetracycline is needed to induce APOL1 expression. 1 mg/mL tet stock in water was diluted to 250 ng/mL (5×) in cell assay media. 60 μL of cell assay media (no tet control) was dispensed in columns 1 and 24, and 60 μL of 5× tet was dispensed in 384-PP-round bottom plate in columns 2 to 23 with the Multidrop dispenser.
Assay ready plates from the Global Compound Archive were ordered using template 384_APOL1Cell_DR10n2_50 μM_v3. Compounds were dispensed at 200 nL in DMSO. The final top concentration was 10 μM with a 10 point 3-fold dilution in duplicate in the MultiTox assay.
20 μL were transferred from the 5× tet plate to the ARP and mixed, then 5 μL of 5× tet and the compounds were transferred to the cell plate and mixed using the Bravo. The cell plate was placed in the humidified 37° C. 5% CO2 incubator for 24 hours.
The MultiTox-Fluor Multiplex Cytotoxicity Assay was performed in accordance with the manufacturer's protocol. After cells were incubated with tet and compound for 24 hours, 25 μL of 1× MultiTox reagent was added to each well using the Multidrop dispenser; the plates were placed on a plate shaker (600 rpm) for 2 minutes, then centrifuged briefly and placed back in the 37° C. incubator for 30 minutes. […]

Cn1cc([C@@H]2C[C@]3(C[C@H](C4CC4)N2)OCCc2cc(C(F)(F)F)sc23)nn1 [Compound 383, (2′R,6′S,7S)-2′-cyclopropyl-6′-(1-methyltriazol-4-yl)-2-(trifluoromethyl)spiro[4,5-dihydrothieno[2,3-c]pyran-7,4′-piperidine]]
IC50: < 0.05 µM

C[C@H]1C[C@@]2(C[C@@H](c3cn(C)nn3)N1)OCC(C)(O)c1cc(C(F)(F)F)sc12 (stereo partly drawn) [Compound 384, (2′S,6′S, 7S)-2′,4-dimethyl-6′-(1-methyltriazol-4-yl)-2-(trifluoromethyl)spiro[5H-thieno[2,3-c]pyran-7,4′-piperidine]-4-ol]
IC50: < 0.05 µM

C[C@H]1C[C@@]2(C[C@@H](c3cn(C)nn3)N1)OC[C@@H](O)c1cc(C(F)(F)F)sc12 [Compound 386, (2S,4S,4′S,6S)-2-methyl-6-(1-(methyl-^13C-d3)-1H-1,2,3-triazol-4-yl)-2′-(trifluoromethyl)-4′,5′-dihydrospiro[piperidine-4,7′-thieno[2,3-c]pyran]-5-^13C-4′-ol]
IC90: < 0.05 µM
IC50: < 0.05 µM

Cn1cc([C@@H]2C[C@]3(C[C@H](c4ccccc4)N2)OC[C@@H](O)c2cc(Cl)sc23)nn1 [Compound 387, (2′S,4S,6′R, 7S)-2-chloro-2′-(1-methyltriazol-4-yl)-6′-phenyl-spiro[4,5-dihydrothieno[2,3-c]pyran-7,4′-piperidine]-4-ol]
IC50: > 0.5 µM

Cn1cc(C2CC3(CC(C(F)F)N2)OCCc2cc(Cl)sc23)nn1 (centres unmarked) [Compound 388, 2-chloro-2′-(difluoromethyl)-6′-(1-methyltriazol-4-yl)spiro[4,5-dihydrothieno[2,3-c]pyran-7,4′-piperidine]]
IC50: > 0.5 µM

Cn1cc(C2CC3(CC(C(F)F)N2)OCCc2cc(C(F)(F)F)sc23)nn1 (centres unmarked) [Compound 389, 2′-(difluoromethyl)-6′-(1-methyltriazol-4-yl)-2-(trifluoromethyl)spiro[4,5-dihydrothieno[2,3-c]pyran-7,4′-piperidine]]
IC50: 0.05 to 0.5 µM

C[C@H]1C[C@@]2(C[C@@H](c3cn(C)nn3)N1)OC[C@@H](O)c1sc(C(F)(F)F)cc12 [Compound 390, (2′S,4S,6′S, 7R)-2′-methyl-6′-(1-methyltriazol-4-yl)-2-(trifluoromethyl)spiro[6,7-dihydrothieno[3,2-c]pyran-4,4′-piperidine]-7-ol]
IC50: < 0.05 µM
